By Kd is commonly meant the free concentration of one partner at which half of the binding sites on the other are occupied at equilibrium, for simple one-to-one binding. Read a high Kd as a looser complex. In general, stoichiometry N refers to a count of units in the complex or per binding partner.

Results on six molecules are retold here after PMC4731787, “Structural basis for the recognition of two consecutive mutually interacting DPF motifs by the SGIP1 μ homology domain” (Scientific Reports, 2016).

Substitutions are numbered along the chain they refer to.

First the molecules themselves.
T1: SGIP1 μHD (residues 552 to 828) (Homo sapiens, UniProt Q9BQI5)
T1 construct: the SGIP1 μHD (residues 552 to 828); GST (N, cleaved yes); made in house; host or cells: Escherichia coli BL21-Gold (DE3) or Rosetta2
T1 sequence (Q9BQI5 552-828): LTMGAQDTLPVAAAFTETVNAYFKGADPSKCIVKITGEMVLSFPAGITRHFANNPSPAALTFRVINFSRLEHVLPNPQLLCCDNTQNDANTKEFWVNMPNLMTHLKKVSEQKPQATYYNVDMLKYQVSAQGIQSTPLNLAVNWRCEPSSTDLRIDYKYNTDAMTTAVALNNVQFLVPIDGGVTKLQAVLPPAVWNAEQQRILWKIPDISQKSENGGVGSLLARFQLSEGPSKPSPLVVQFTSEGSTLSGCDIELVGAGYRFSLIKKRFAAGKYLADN

T2: SGIP1 µHD N670D (Homo sapiens, UniProt Q9BQI5, N670D)
T2 construct: the SGIP1 μHD (residues 552 to 828); GST (N, cleaved yes); made in house; host or cells: Escherichia coli (as for the wild-type μHD)
T2 sequence (Q9BQI5 552-828 N670D): T1 sequence (Q9BQI5 552-828) with N119D

T3: SGIP1 µHD K816E (Homo sapiens, UniProt Q9BQI5, K816E)
T3 construct: the SGIP1 μHD (residues 552 to 828); GST (N, cleaved yes); made in house; host or cells: Escherichia coli (as for the wild-type μHD)
T3 sequence (Q9BQI5 552-828 K816E): T1 sequence (Q9BQI5 552-828) with K265E

T4: FCHo1 µHD (residues 623 to 889) (Homo sapiens, UniProt O14526)
T4 construct: GST (N, cleaved yes); made in house; host or cells: Escherichia coli (as for the SGIP1 μHD)
T4 sequence (O14526 623-889): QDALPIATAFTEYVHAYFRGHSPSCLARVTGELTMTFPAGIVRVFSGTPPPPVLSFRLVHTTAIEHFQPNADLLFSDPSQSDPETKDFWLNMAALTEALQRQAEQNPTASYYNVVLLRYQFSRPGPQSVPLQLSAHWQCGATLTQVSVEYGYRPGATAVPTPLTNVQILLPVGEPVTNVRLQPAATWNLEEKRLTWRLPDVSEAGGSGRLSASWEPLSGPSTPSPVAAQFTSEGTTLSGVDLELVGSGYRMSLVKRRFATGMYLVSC

T5: appendage domain of human α-adaptin (residues 711 to 955) (human, UniProt O95782-2 711-955)
T5 construct: also called α-adaptin appendage domain; source: E. coli, purified in the same manner as for the SGIP1 μHD
T5 sequence (looked up): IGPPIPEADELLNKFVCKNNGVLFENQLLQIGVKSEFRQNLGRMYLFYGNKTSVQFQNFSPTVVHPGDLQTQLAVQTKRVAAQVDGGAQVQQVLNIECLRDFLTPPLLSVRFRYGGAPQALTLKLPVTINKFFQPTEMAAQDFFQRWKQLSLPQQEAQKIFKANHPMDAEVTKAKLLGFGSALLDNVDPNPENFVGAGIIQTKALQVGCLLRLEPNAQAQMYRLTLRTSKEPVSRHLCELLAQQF

B1: Eps15-618–654 (domain or fragment, human)
chain: GPLGSYDFFQSDPFVGSDPFKDDPFGKIDPFGGDPFKGSDPFA
notes: source: E. coli, expressed and purified in the same manner as the SGIP1 µHD
B2: FCHo1 µ homology domain (µHD), residues 623 to 889 (domain or fragment, human, UniProt O14526-1 623-889, looked up)
chain: T4 sequence (O14526 623-889)
notes: also called FCHo1 µHD; human FCHo1 µHD (aa623–889); source: E. coli, expressed and purified in the same manner as the SGIP1 µHD
B3: Eps15-661–720 (domain or fragment, human, UniProt P42566-1 661-720, looked up)
chain: QSTDPFATSSTDPFSAANNSSITSVETLKHNDPFAPGGTVVAASDSATDPFASVFGNESF
notes: Eps15, human, residues 661-720; source: E. coli, purified in the same manner as for the SGIP1 μHD
B4: Eps15-661–790 (domain or fragment, human, UniProt P42566-1 661-790, looked up)
chain: QSTDPFATSSTDPFSAANNSSITSVETLKHNDPFAPGGTVVAASDSATDPFASVFGNESFGGGFADFSTLSKVNNEDPFRSATSSSVSNVVITKNVFEETSVKSEDEPPALPPKIGTPTRPCPLPPGKRS
notes: Eps15, human, residues 661-790 (limits from the fragment's name); source: E. coli, purified in the same manner as for the SGIP1 μHD

Assay [1] deals with T1, SGIP1 μHD (residues 552 to 828). Put plainly: ITC of Eps15 fragments with the SGIP1 μHD. In kind it is binding. The settings on record: for -TΔS / ΔG / ΔH / N (binding ratio of Eps15 fragment to μHD): μHD in cell titrated with fragment. In a few lines: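 Isothermal titration calorimetry was run at 25 °C in 50 mM Tris-HCl pH 8.0, 50 mM NaCl, mostly titrating Eps15 fragments or peptides into μHD protein in the cell (25 injections, 4 min apart). Some runs reversed the titration direction. Duplicate runs were globally fitted to single- or two-site models, with N derived from incompetent-fraction parameters.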

In the next assay the target is T2, SGIP1 µHD N670D. Put plainly: ITC of Eps15 fragments with the SGIP1 μHD N670D mutant. In kind it is binding. The protocol: (§1) For the majority of the ITC experiments, the SGIP1 μHD, its mutants, or the FCHo1 μHD, in 50 mM Tris-HCl buffer (pH 8.0) containing 50 mM NaCl, was loaded in the sample cell, in a volume of 1.42 ml, and titrated with various Eps15-derived fragments or peptides in the same buffer, with an initial 5 μl injection and subsequent 10 μl injections, for a total of 25 injections. The titrations were performed while the samples were stirred at 310 r.p.m. at 25 °C. Each injection was followed by an interval of 4 min, to allow baseline stabilization. For the other ITC experiments indicated in Supplementary Table 2, the Eps15-derived fragments or peptides in the sample cell were titrated with the SGIP1 or FCHo1 μHD. All ITC experiments were performed on a VP-ITC microcalorimeter (MicroCal, LLC) and repeated twice, and the data were processed with the program NITPIC[42]. The two data sets from each ITC experiment were analyzed by global weighted least-squares fitting with the program SEDPHAT[43]. Figures for the ITC data were created with the program GUSSI (http://biophysics.swmed.edu/MBR/software.html). To obtain the values of the traditional stoichiometric parameter N in our ITC data analyses (Supplementary Table 2), we used the values of the parameters of the incompetent fractions of proteins and ligands. […]

The next assay concerns the target T3, SGIP1 µHD K816E. Kind of assay: ITC of Eps15 fragments with the SGIP1 μHD K816E mutant. In kind it is binding. The protocol: as §1
The target in assay [2] is T4, FCHo1 µHD (residues 623 to 889). Put plainly: ITC of Eps15 fragments with the FCHo1 μHD. Format: binding. Particulars: FCHo1 μHD in cell titrated with fragment, single-site model. The method, then: For the majority of the ITC experiments, the SGIP1 μHD, its mutants, or the FCHo1 μHD, in 50 mM Tris-HCl buffer (pH 8.0) containing 50 mM NaCl, was loaded in the sample cell, in a volume of 1.42 ml, and titrated with various Eps15-derived fragments or peptides in the same buffer, with an initial 5 μl injection and subsequent 10 μl injections, for a total of 25 injections. The titrations were performed while the samples were stirred at 310 r.p.m. at 25 °C. Each injection was followed by an interval of 4 min, to allow baseline stabilization. For the other ITC experiments indicated in Supplementary Table 2, the Eps15-derived fragments or peptides in the sample cell were titrated with the SGIP1 or FCHo1 μHD. All ITC experiments were performed on a VP-ITC microcalorimeter (MicroCal, LLC) and repeated twice, and the data were processed with the program NITPIC[42]. The two data sets from each ITC experiment were analyzed by global weighted least-squares fitting with the program SEDPHAT[43]. Figures for the ITC data were created with the program GUSSI (http://biophysics.swmed.edu/MBR/software.html). To obtain the values of the traditional stoichiometric parameter N in our ITC data analyses (Supplementary Table 2), we used the values of the parameters of the incompetent fractions of proteins and ligands. […] The values of the incompetent fractions are between 0 and 1, whereas the other parameter affecting the traditional parameter N, the number of sites, was fixed as 1 and 2, for the single- and two-site models, respectively. Thus, in the two-site model, the values of N for the first and second sites are identical in our ITC data analyses (Supplementary Table 2).

The target of assay [3] is B2. Put plainly: ITC; Eps15 fragment in the sample cell, titrated with the SGIP1 or FCHo1 µHD; 50 mM Tris-HCl (pH 8.0), 50 mM NaCl, 25 °C; VP-ITC; two data sets fitted globally (NITPIC, SEDPHAT); single-site or two-site model as named in the quantity. The settings on record: both partners purified.
In assay [4] the target is B2. Kind of assay: ITC; µHD, µHD mutant or α-adaptin appendage domain in the sample cell, titrated with the Eps15 fragment or peptide; 50 mM Tris-HCl (pH 8.0), 50 mM NaCl, 25 °C; VP-ITC; two data sets fitted globally (NITPIC, SEDPHAT); single-site model. Particulars: both partners purified. Background: ITC needs no label: the signal is the heat of the interaction.
The assay “Eps15-618–654” concerns the target B1. Put plainly: ITC; Eps15 fragment in the sample cell, titrated with the SGIP1 or FCHo1 µHD; 50 mM Tris-HCl (pH 8.0), 50 mM NaCl, 25 °C; VP-ITC; two data sets fitted globally (NITPIC, SEDPHAT); single-site or two-site model as named in the quantity. Particulars: both partners purified.
Assay [5] concerns the target T5, appendage domain of human α-adaptin …. Kind of assay: ITC; VP-ITC; α-adaptin appendage domain with Eps15 fragments; which of the two was in the cell is not told in the text (Supplementary Table 2). Particulars: both partners purified.
Assay [6] concerns the target α-adaptin appendage domain (residues 711 to 955). Kind of assay: ITC of Eps15 fragments with the α-adaptin appendage domain. Format: binding, human.
Setting [7] is: 25 °C, single-site model, ± 68.3% confidence interval.
The mark [8] stands for this setting: single-site model, ± 68.3% confidence interval.
Setting [9] is: 25 °C, 50 mM Tris-HCl pH 8.0, 50 mM NaCl, mutant μHD in cell titrated with fragment, two runs.

Turning to Ac-YDPFGGDPFKG-NH2 [Eps15-640–649], in assay [1] (25 °C, single-site model), the “-TΔS” value was determined as 2106 cal/mol and the ΔG is -6166 cal/mol. For the same molecule, the ΔH in assay [1] (setting [7]) is -8272 ± 679 cal/mol. In addition, the “N (binding ratio of Eps15 fragment to μHD)” value in assay [1] (setting [8]) is recorded as 0.66 ± 0.03. In addition, at SGIP1 µHD N670D, the “binding to SGIP1 μHD with Asn670 replaced by Asp (in words)” value is reported as “abolished the binding”. Further, the Kd result on SGIP1 µHD N670D (setting [9]) was “below detection limit”.

In the case of Ac-YDPFGGDPFKGSDPFA-NH2 [Eps15-640–654], the “binding to the SGIP1 μHD (in words)” value in [1] is listed as “slightly stronger affinity than Eps15-622–637”. The “-TΔS” value in [1] (25 °C, single-site model) was 3482 cal/mol; in assay [2] (25 °C) it was 748 cal/mol. In addition, the ΔG in [1] (25 °C, single-site model) is recorded as -7559 cal/mol; in assay [2] (25 °C), -7175 cal/mol. Moreover, the ΔH was -11041 ± 191 cal/mol in assay [1] (setting [7]) and -7923 ± 1098 cal/mol in assay [2] (25 °C, ± 68.3% confidence interval). Further, the “N (binding ratio of Eps15 fragment to μHD)” value in assay [1] (setting [8]) came to 0.66 ± 0.01. Further, the “binding to SGIP1 μHD with Lys816 replaced by Glu (in words)” value at SGIP1 µHD K816E is recorded as “abolished the binding”. Also, the dissociation constant Kd result at SGIP1 µHD K816E (setting [9]) was “below detection limit”; in assay [2] (25 °C, 50 mM Tris-HCl pH 8.0, 50 mM NaCl, global fit of two runs, ± 68.3% confidence interval) it was 5.5 ± 1.4 µM. For the same molecule, the “N (binding ratio of Eps15 fragment to FCHo1 μHD)” value in assay [2] (± 68.3% confidence interval) was determined as 0.64 ± 0.06.

For the molecule B1, the equilibrium dissociation constant (Kd) in assay [3] amounted to 190 nM. Also, in [4], the affinity, expressed as Kd, was 270 nM and the “stoichiometry N” value was determined as 0.59.

As to B2, the “stoichiometry N” value in the assay with Eps15-618–654 was determined as 0.7.

Consider B3, for which the binding result in [5] was “binds”.

On to B4, for which the “binding to the SGIP1 μHD (in words)” value in assay [1] is listed as “could not detect the clear binding”. The Kd entry in assay [1] (25 °C, 50 mM Tris-HCl pH 8.0, 50 mM NaCl, μHD in sample cell titrated with Eps15 fragment, single-site model, global fit of two runs, ± 68.3% confidence interval) was “below detection limit”; in assay [6] (25 °C, appendage domain titrated with Eps15 fragment, single-site model, global fit of two runs, ± 68.3% confidence interval), 690 ± 80 nM. Also, in [6], the “Kd for the α-adaptin appendage domain (in words)” value is recorded as “in the nanomolar range”. In assay [6] (25 °C, single-site model), the “-TΔS” value worked out at 20041 cal/mol. Also, in assay [6] (25 °C, single-site model), the ΔG was -8401 cal/mol. The same molecule displayed a ΔH in assay [6] (setting [7]) of -28442 ± 319 cal/mol. In addition, in assay [5], the binding result is given as “binds”.
